# Experimental data reported in patent US20240343699A1, “DERIVATIVES OF SUBSTITUTED MORPHOLINES AND USES THEREOF” (Supernus Pharmaceuticals, Inc., priority 2023, published 2024).
# pIC50: −log10 of the molar value. Where “and” joins values, the source holds several entries; their conditions need not be identical. Identical values can stand only once. Like-named read-outs stand apart in the source and are kept apart here.
# What was measured:
# [1] = In vitro stability in human plasma; type: in vitro ADME; details: human plasma, 2.0 μM
# Description: Test Article Solutions: COMPOUND A, COMPOUND B and COMPOUND C stock solutions at 10 mM were prepared in dimethyl sulfoxide (DMSO). Further dilution with DMSO was made to prepare 2.0 mM. The working solutions of 50 μM was prepared with 20% MeOH/water. […] Prior to use, the stock solutions were brought to room temperature and thoroughly mixed and prepared same as described above.
# Incubations were conducted in 96-well plate format. The time points defined for this study are 0, 5, 15, 30 and 60 minutes.
# An appropriate volume of plasma from test species were added to a 96-deep well plate, and COMPOUND A, COMPOUND B and COMPOUND C working solution was spiked into the plasma in duplicate to achieve a final concentration of 2.0 μM. For positive controls, the rat plasma was spiked with enalapril, the dog plasma spiked with bisacodyl and the human plasma was spiked with propantheline. All spiked plasma sample plates were incubated in a water bath at 37° C. with shaking.
# At the end of each time point, samples were immediately quenched with three volume of cold quenching solution.
# A study was conducted to examine the plasma stability. Test Compounds: COMPOUND D, COMPOUND E, and Viloxazine. Positive controls: Enalapril and Propantheline.
# [2] = Metabolic stability in human intestinal homogenate; type: in vitro ADME; details: human intestinal homogenate, 1 μM
# Description: Incubation Buffer (PBK): 50 mM potassium phosphate buffer (PBK) was prepared from 1 M potassium phosphate buffer, pH 7.2. […] The dilution of 1 mM intermediate was prepared from 10 mM stock with 90% methanol/water, then […] working solutions were prepared by diluting the 1 mM intermediates with 50 mM PBK. […] Prior to use, the stock solutions were brought to room temperature and thoroughly mixed. […] Cofactors Solutions: the cofactor solution was made at 10 mM of NADPH (nicotinamide-adenine dinucleotide phosphate, reduced form) in 50 mM PBK buffer.
# (§1) The incubation was carried out in 96-well plates. The intestinal homogenate mixture solution was added to 96-well plates (80 μL/well) in duplicate. […] Reaction was initiated by adding cofactor solution at 10 µL/well. The plates were incubated at 37° C. in a water bath with shaking. […] The final organic solvent content in the incubation was ≤1%.
# At specified time points, i.e., 5, 10, 20, 30 and 60 minutes, NCF60 (no cofactor at 60 min, without adding NADPH replaced with 50 mM PBK buffer) reaction was stopped by adding three volumes of stop solution. The time zero (To) samples were prepared by adding three volumes of stop solution to intestinal homogenate samples, followed by addition of test article or control, and cofactor solution 10 μL/well.
# Subsequently, 100 μL of supernatant was removed from each well, diluted with 100 μL pure water and analyzed by LC/MS/MS.
# A study was conducted to examine the metabolic stability. […] Positive controls: 7-hydroxycoumarin and Testosterone.
# [3] = Metabolic stability in dog liver S9; type: in vitro ADME, Beagle dog; details: dog liver S9, 1 μM; for half-life at 1 μM / microsomal CLint at 1 μM: Beagle, pH 7.2; for microsomal CLint at 1 μM: read-out: CLint(LS9)
# Description: Incubation Buffer (PBK): 50 mM potassium phosphate buffer was prepared from 1 M potassium phosphate buffer, pH 7.2. […] The dilution of […] was prepared by 90% methanol/10% DMSO, then 10 μM working solutions were prepared by diluting the 0.1 mM intermediates with 50 mM PBK. […] Prior to use, the stock solutions were brought to room temperature and thoroughly mixed. […] Cofactors Solutions: the mixture of cofactors solution was made at 10 mM of NADPH and 10 mM of UDPGA in PBK buffer.
# as §1, with “liver S9 working solutions were” for “intestinal homogenate mixture solution was”, “mixture” for “solution at”, “μL/well.” for “µL/well.”
# At specified time points, i.e., 5, 10, 20, 30 and 60 minutes, NCF60 (without adding NADPH (Nicotinamide-adenine dinucleotide phosphate, reduced form) and UDPGA (Uridine 5′-diphosphoglucuronic acid trisodium salt) replaced with PBK buffer reaction was stopped by adding three volumes of stop solution. The time zero (To) samples were prepared by adding three volumes of stop solution to liver S9 samples, followed by addition of test article or control, and cofactor mixture solution 10 μL/well.
# Subsequently, 100 μL of supernatant.
# Positive controls: 7-ethoxycoumarin and 7-hydroxycoumarin.
# hNav1.5 = biological target: T1, hNav1.5 (Homo sapiens, UniProt Q14524); assay: Nav1.5 human sodium ion channel cell based automated patch clamp assay (QPatch HT); details: Antagonist
# T1 construct: CYL6004QP2DR
# Description: Electrophysiological assays were conducted to profile five compounds for activities on the ion channel target using the QPatch HT electrophysiological platform.
# CYL6004QP2DR Nav1.5 Human Sodium Ion Channel Cell Based Automated Patch Clamp Assay. Cells were held at −120 mV for 100 ms, stepped to −130 mV for 100 ms, and stepped back to −120 mV for 100 ms to measure the leak current. Na channels exist in a) resting or closed state at −120 mV, b) a transient open state that inactivates to c) inactivated state at −10 mV. Na current inhibition within 1-2 ms of channel opening at −10 mV is open channel inhibition (pulse 1). […] Pulse 1 and 2 are used to investigate drug binding to the open state and inactivated state of the Na channels, respectively. Each concentration of compound was applied for 5 minutes.
# Current amplitudes more than 200 pA at the control stage were analyzed. The amplitude of the current was calculated by measuring the difference between the peak inward current on stepping to −10 mV (i.e. peak of the current) and remaining current at the end of the step. The current was assessed in vehicle control conditions and then at the end of each five (5) minute compound application.
# [4] = Protein binding in CD-1 mouse plasma (equilibrium dialysis); details: dialysis conditions; no binding reported
# [5] = Pulse 1 (open state), read-out: Estimated IC50 (Pulse 1)
# [6] = Pulse 2 (inactivated state), read-out: Estimated IC50 (Pulse 2)
# T1 sequence (Q14524 whole entry): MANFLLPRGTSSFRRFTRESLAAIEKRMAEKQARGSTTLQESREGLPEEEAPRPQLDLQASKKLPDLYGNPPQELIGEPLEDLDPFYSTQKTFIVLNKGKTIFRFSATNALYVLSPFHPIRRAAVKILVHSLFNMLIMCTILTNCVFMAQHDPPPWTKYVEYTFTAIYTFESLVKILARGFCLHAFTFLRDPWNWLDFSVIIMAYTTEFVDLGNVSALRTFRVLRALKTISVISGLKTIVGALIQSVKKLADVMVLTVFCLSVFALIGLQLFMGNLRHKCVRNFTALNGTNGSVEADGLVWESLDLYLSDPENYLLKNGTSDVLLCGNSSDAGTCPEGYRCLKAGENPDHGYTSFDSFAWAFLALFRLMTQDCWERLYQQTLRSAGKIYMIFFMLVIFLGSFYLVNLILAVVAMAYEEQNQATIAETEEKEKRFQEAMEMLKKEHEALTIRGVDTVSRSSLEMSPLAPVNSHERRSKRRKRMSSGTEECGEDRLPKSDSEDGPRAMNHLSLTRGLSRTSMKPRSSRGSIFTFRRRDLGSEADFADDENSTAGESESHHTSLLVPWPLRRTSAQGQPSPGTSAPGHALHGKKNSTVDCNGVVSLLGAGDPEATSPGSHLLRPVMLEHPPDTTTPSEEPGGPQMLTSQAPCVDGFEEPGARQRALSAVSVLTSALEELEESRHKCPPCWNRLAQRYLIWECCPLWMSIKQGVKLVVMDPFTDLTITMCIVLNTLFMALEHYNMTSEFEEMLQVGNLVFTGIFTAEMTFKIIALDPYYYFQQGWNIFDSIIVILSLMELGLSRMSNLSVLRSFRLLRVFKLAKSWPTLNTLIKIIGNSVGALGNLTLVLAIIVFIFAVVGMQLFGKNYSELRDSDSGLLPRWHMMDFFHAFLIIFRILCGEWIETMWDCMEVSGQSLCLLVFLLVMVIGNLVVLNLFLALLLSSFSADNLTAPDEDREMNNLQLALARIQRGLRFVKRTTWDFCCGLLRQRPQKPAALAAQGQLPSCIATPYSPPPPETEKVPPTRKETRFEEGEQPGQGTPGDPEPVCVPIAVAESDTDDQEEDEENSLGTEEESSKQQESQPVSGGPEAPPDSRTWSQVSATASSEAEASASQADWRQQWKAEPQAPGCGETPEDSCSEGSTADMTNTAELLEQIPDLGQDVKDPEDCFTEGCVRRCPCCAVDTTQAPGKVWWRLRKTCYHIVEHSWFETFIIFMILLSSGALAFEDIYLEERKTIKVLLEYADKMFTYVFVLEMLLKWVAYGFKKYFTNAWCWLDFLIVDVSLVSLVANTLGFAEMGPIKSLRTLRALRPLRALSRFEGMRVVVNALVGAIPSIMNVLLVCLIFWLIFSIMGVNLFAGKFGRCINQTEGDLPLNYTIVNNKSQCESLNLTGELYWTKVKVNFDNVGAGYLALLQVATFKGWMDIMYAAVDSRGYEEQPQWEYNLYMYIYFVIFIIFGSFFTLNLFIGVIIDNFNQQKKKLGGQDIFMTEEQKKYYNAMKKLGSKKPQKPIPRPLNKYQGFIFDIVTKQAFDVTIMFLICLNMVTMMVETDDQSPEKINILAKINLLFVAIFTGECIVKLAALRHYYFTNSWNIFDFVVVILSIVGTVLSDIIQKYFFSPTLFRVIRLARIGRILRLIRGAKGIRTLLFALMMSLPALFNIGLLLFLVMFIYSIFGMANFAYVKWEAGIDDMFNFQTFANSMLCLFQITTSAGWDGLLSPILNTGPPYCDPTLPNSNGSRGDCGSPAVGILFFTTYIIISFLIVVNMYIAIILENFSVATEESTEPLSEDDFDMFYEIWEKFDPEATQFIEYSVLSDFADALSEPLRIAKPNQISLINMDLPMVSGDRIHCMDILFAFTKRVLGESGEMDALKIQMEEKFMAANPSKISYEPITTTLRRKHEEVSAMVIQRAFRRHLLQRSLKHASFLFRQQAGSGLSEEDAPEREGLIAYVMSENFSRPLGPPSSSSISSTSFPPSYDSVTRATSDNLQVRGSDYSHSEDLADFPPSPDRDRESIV
smiles,measurement,setting,value
CCOc1ccccc1OC[C@@H]1CN(C(=O)OC(C)OC(=O)[C@@H](N)C(C)C)CCO1 (stereo partly drawn) [COMPOUND A],half-life at 2 μM,[1],94.9 min
same,% Remaining,[1]; 0 min,100%
same,Analyte Peak area/IS Peak area Mean (N = 2),[1]; 0 min,2.31
same,% Remaining,[1]; 5 min,107%
same,Analyte Peak area/IS Peak area Mean (N = 2),[1]; 5 min,2.46
same,% Remaining,[1]; 15 min,93.1%
same,Analyte Peak area/IS Peak area Mean (N = 2),[1]; 15 min,2.15
same,% Remaining,[1]; 30 min,80.8%
same,Analyte Peak area/IS Peak area Mean (N = 2),[1]; 30 min,1.86
same,Analyte Peak area/IS Peak area Mean (N = 2),[1]; 60 min,1.57
same,% Remaining,[2]; 0 min,100%
same,Analyte Peak area/IS Peak area Mean (n = 2),[2]; 0 min,0.269
same,% Remaining,[2]; 5 min,0%
same,Analyte Peak area/IS Peak area Mean (n = 2),[2]; 5 min,0.000
same,% Remaining,[2]; 10 min,0%
same,Analyte Peak area/IS Peak area Mean (n = 2),[2]; 10 min,0.000
same,% Remaining,[2]; 20 min,0%
same,Analyte Peak area/IS Peak area Mean (n = 2),[2]; 20 min,0.000
same,% Remaining,[2]; 30 min,0%
same,Analyte Peak area/IS Peak area Mean (n = 2),[2]; 30 min,0.000
same,% Remaining,[2]; 60 min,0%
same,Analyte Peak area/IS Peak area Mean (n = 2),[2]; 60 min,0.000
same,% Remaining,[2]; NCF60 (no cofactor at 60 min),0%
same,Analyte Peak area/IS Peak area Mean (n = 2),[2]; NCF60 (no cofactor at 60 min),0.000
same,half-life at 1 μM,[2]; pH 7.2,< 2.5 min
same,half-life at 1 μM,[3],11 min
same,microsomal CLint at 1 μM,[3],126 µL/min/mg
same,% Remaining,[3]; 0 min,100%
same,Analyte Peak area/IS Peak area Mean × 100 (n = 2),[3]; 0 min,12.2
same,% Remaining,[3]; 5 min,8.0%
same,Analyte Peak area/IS Peak area Mean × 100 (n = 2),[3]; 5 min,0.98
same,% Remaining,[3]; 10 min,8.8%
same,Analyte Peak area/IS Peak area Mean × 100 (n = 2),[3]; 10 min,1.078
same,% Remaining,[3]; 20 min,5.2%
same,Analyte Peak area/IS Peak area Mean × 100 (n = 2),[3]; 20 min,0.635
same,% Remaining,[3]; 30 min,3.1%
same,Analyte Peak area/IS Peak area Mean × 100 (n = 2),[3]; 30 min,0.381
same,% Remaining,[3]; 60 min,0.8%
same,Analyte Peak area/IS Peak area Mean × 100 (n = 2),[3]; 60 min,0.097
same,% Remaining,"[3]; NCF60 (no cofactors, 60 min)",2.0%
same,Analyte Peak area/IS Peak area Mean × 100 (n = 2),"[3]; NCF60 (no cofactors, 60 min)",0.248
same,pIC50,hNav1.5; [5],< 4.00
same,pIC50,hNav1.5; [6],4.71
same,stability in the mouse plasma,[4],instability
CCOc1ccccc1OC[C@@H]1CN(C(=O)OC(OC(=O)[C@@H](N)C(C)C)C(C)C)CCO1 (stereo partly drawn) [COMPOUND B],half-life at 2 μM,[1],> 187 min
same,% Remaining,[1]; 0 min,100%
same,Analyte Peak area/IS Peak area Mean (N = 2),[1]; 0 min,1.90
same,% Remaining,[1]; 5 min,90.6%
same,Analyte Peak area/IS Peak area Mean (N = 2),[1]; 5 min,1.72
same,% Remaining,[1]; 15 min,94.5%
same,Analyte Peak area/IS Peak area Mean (N = 2),[1]; 15 min,1.79
same,% Remaining,[1]; 30 min,87.1%
same,Analyte Peak area/IS Peak area Mean (N = 2),[1]; 30 min,1.65
same,% Remaining,[1]; 60 min,91.5%
same,Analyte Peak area/IS Peak area Mean (N = 2),[1]; 60 min,1.73
same,% Remaining,[2]; 0 min,100%
same,Analyte Peak area/IS Peak area Mean (n = 2),[2]; 0 min,0.275
same,% Remaining,[2]; 5 min,7.3%
same,Analyte Peak area/IS Peak area Mean (n = 2),[2]; 5 min,0.020
same,% Remaining,[2]; 10 min,7.1%
same,Analyte Peak area/IS Peak area Mean (n = 2),[2]; 10 min,0.020
same,% Remaining,[2]; 20 min,6.1%
same,Analyte Peak area/IS Peak area Mean (n = 2),[2]; 20 min,0.017
same,% Remaining,[2]; 30 min,2.7%
same,Analyte Peak area/IS Peak area Mean (n = 2),[2]; 30 min,0.007
same,% Remaining,[2]; 60 min,0.57%
same,Analyte Peak area/IS Peak area Mean (n = 2),[2]; 60 min,0.002
same,% Remaining,[2]; NCF60 (no cofactor at 60 min),0.8%
same,Analyte Peak area/IS Peak area Mean (n = 2),[2]; NCF60 (no cofactor at 60 min),0.002
same,half-life at 1 μM,[2]; pH 7.2,10.3 min
same,microsomal CLint at 1 μM,"[2]; pH 7.2, read-out: CLint(HIH)",135 µL/min/mg
same,half-life at 1 μM,[3],7.3 min
same,microsomal CLint at 1 μM,[3],190 µL/min/mg
same,% Remaining,[3]; 0 min,100%
same,Analyte Peak area/IS Peak area Mean × 100 (n = 2),[3]; 0 min,7.78
same,% Remaining,[3]; 5 min,2.9%
same,Analyte Peak area/IS Peak area Mean × 100 (n = 2),[3]; 5 min,0.226
same,% Remaining,[3]; 10 min,4.0%
same,Analyte Peak area/IS Peak area Mean × 100 (n = 2),[3]; 10 min,0.309
same,% Remaining,[3]; 20 min,2.1%
same,Analyte Peak area/IS Peak area Mean × 100 (n = 2),[3]; 20 min,0.166
same,% Remaining,[3]; 30 min,0.5%
same,Analyte Peak area/IS Peak area Mean × 100 (n = 2),[3]; 30 min,0.035
same,% Remaining,[3]; 60 min,0.09% and 0.1%
same,Analyte Peak area/IS Peak area Mean × 100 (n = 2),[3]; 60 min,0.007
same,% Remaining,"[3]; NCF60 (no cofactors, 60 min)",0.0%
same,Analyte Peak area/IS Peak area Mean × 100 (n = 2),"[3]; NCF60 (no cofactors, 60 min)",0.000
same,pIC50,hNav1.5; [5],< 4.00
same,pIC50,hNav1.5; [6],5.12
same,stability in the mouse plasma,[4],instability
